Test [1] deals with T1, off-target kinases (Homo sapiens, UniProt O00329).
T1 sequence (O00329 1-1044): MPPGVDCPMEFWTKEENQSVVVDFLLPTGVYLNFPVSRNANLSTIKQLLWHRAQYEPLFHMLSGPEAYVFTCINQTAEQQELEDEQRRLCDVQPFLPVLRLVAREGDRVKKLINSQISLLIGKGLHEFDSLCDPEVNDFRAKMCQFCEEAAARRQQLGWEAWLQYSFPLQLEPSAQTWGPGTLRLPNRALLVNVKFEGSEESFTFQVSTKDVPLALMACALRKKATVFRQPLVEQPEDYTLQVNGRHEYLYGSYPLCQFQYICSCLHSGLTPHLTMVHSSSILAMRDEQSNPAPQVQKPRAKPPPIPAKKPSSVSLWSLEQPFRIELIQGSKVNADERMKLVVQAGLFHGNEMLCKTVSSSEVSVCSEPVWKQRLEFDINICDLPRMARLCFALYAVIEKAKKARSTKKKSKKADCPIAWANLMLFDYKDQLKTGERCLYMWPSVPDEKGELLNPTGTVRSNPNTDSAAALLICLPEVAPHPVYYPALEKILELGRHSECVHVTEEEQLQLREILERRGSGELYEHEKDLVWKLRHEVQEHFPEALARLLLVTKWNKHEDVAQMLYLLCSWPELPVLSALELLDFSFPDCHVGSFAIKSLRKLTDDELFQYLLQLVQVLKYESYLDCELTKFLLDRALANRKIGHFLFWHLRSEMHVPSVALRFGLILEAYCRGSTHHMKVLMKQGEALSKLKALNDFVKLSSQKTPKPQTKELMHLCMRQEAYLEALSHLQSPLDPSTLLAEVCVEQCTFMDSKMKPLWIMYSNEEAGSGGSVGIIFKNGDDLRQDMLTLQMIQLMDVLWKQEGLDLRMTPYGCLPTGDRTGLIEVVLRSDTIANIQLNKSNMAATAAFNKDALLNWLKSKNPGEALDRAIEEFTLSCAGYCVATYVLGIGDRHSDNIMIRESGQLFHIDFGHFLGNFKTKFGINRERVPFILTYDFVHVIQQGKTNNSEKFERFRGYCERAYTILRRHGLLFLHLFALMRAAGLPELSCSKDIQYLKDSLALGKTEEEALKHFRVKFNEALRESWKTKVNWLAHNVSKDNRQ
Nature of the test: SelectScreen Kinase Profiling, single point inhibition and IC50 for off-target kinases. In kind it is biochemical. The conditions noted are these: PIK3CD/PIK3R1 (p110 delta/p85 alpha), Adapta, ATP Km app.

Test [2] deals with off-target kinases (Homo sapiens, UniProt P08581, D1228H). The description is as above. In kind it is biochemical. The following applies: MET D1228H, LanthaScreen Binding. For orientation: In TR-FRET formats the signal depends on donor and acceptor labels being close together.

Like-named read-outs stand apart in the source and are kept apart here.

Sequence of off-target kinases (Homo sapiens, UniProt P08581, D1228H) (P08581 25-1390 D1228H): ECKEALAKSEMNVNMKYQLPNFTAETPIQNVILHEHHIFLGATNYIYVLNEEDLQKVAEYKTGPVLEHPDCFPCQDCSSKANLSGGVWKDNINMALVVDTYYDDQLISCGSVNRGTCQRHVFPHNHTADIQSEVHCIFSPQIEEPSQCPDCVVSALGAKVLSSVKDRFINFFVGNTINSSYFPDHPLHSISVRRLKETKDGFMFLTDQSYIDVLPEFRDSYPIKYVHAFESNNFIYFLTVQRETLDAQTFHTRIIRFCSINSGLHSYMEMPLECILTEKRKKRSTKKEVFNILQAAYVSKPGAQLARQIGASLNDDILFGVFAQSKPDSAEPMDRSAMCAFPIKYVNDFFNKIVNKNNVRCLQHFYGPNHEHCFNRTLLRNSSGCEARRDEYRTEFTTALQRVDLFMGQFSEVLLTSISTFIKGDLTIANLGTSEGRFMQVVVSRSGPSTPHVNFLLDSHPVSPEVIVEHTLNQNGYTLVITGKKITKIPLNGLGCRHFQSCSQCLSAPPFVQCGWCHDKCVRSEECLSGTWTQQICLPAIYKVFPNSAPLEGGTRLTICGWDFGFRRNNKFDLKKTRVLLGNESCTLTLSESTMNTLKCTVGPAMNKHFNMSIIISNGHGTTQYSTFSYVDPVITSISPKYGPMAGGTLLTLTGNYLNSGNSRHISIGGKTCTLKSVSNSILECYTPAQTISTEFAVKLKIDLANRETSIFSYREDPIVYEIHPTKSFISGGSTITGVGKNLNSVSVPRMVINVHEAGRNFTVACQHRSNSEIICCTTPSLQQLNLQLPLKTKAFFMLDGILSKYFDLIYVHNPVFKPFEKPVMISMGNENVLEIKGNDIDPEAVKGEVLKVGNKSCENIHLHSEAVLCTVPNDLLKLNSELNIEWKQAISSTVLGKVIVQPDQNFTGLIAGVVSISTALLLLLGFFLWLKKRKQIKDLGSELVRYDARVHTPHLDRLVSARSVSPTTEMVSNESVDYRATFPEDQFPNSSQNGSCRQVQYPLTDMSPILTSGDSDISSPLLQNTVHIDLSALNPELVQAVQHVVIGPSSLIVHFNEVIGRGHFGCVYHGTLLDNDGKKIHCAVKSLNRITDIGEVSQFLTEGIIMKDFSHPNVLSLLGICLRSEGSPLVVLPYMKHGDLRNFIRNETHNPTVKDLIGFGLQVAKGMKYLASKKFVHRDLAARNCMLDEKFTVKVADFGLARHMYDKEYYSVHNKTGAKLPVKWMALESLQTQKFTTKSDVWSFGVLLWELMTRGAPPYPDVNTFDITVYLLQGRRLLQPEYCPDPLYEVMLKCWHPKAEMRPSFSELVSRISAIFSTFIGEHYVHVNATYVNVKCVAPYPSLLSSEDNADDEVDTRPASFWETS

Usually inhibition stands for how much of the control response was suppressed. Regarding `N#Cc1cc(-c2ncnc(Nc3ccc(N4CCN(C5COC5)CC4)cc3)n2)ccc1OC1CCOCC1` [Compound 1, 5-(4-((4-(4-(oxetan-3-yl)piperazin-1-yl)phenyl)amino)-1,3,5-triazin-2-yl)-2-((tetrahydro-2H-pyran-4-yl)oxy)benzonitrile], the inhibition is 22% on off-target kinases [1] (read-out: % Inhibition 1); 9% on off-target kinases [1] (read-out: % Inhibition 2); 16% at off-target kinases [1] (read-out: % Inhibition Avg); 46% on off-target kinases [2] (read-out: % Inhibition 1); 48% at off-target kinases [2] (read-out: % Inhibition 2); 47% on off-target kinases [2] (read-out: % Inhibition Avg).

Values taken from patent US11572590B2, “Methods for evaluating tumor cell spheroids using 3D microfluidic cell culture device” (Dana-Farber Cancer Institute, Inc., priority 2017, dated 2023).
